Test results taken from US8076321B2, “Compositions for treatment of systemic mastocytosis” (priority 2005, dated 2011).
In brackets after ≈: the same amount, converted by molar mass. Several values for one entry are separate records, joined by “and”; a condition that tells them apart may be missing. Equal values may be shown once. Entries after “also recorded” stand apart in the source; their conditions may differ. Read-outs that look alike come from different tables or passages of the source.

Experiments:
[1] = target: T1, KIT V560G (HMC-1.1 cells) (Homo sapiens, UniProt P10721, V560G); test: KIT phosphorylation by immunoprecipitation and Western blotting in HMC-1.1 cells; format: cell-based; conditions: 1 μM, 4 hours
T1 construct: endogenous in cells; host or cells: HMC-1.1 (subclone of the human mast cell leukemia line HMC-1)
Protocol: (§1) In case of Ton.Kit.wt cells, KIT phosphorylation is induced by adding rhSCF (100 ng/ml). Immunoprecipitation (IP) and Western blotting are performed as described previously.^32 In brief, cells are washed at 4° C. and resuspended in RIPA buffer (1 ml buffer per 10^8 cells) consisting of 50 mM Tris, 150 mM sodium chloride (NaCl), 1% nonidet P40 (NP-40), 0.25% deoxycholic acid, 0.1% sodium dodecyl sulfate (SDS), 1 mM ethylene-diamine-tetraacetic acid (EDTA), 1 mM sodium fluoride (NaF), 1 mM phenylmethylsulfonyl fluoride (PMSF) and 1 mM sodium orthovanadate (Na3VO4). After incubation in RIPA buffer supplemented with proteinase inhibitor cocktail (Roche) for 30 minutes at 4° C. (vortexed vigorously every 5 minutes), lysates are centrifuged to remove insoluble particles. For IP, lysates from 1×10^7 cells are incubated with anti-KIT antibody SR1^37 (kindly provided by Dr. V. Broudy, University of Washington, Seattle, Wash.) or with the anti-KIT antibody 1C1^38 (kindly provided by Dr. H.-J. Bühring, University of Tübingen, Germany) and protein G Sepharose beads (Amersham) in IP-buffer (50 mM Tris-Cl, pH 7.4, 150 mM NaCl, 100 mM NaF, and 1% NP40) at 4° C. overnight. Then, beads are washed 3 times in IP buffer. […] Membranes are blocked for 1 hour in 5% blocking reagent (Roche) and are then incubated with anti-KIT antibody 1C1 or with the monoclonal antibody 4G10 (Upstate Biotechnology, Lake Placid, N.Y.) directed against tyrosine-phosphorylated proteins, at 4° C. overnight. Antibody reactivity is made visible by sheep anti-mouse IgG antibody and Lumingen PS-3 detection reagent (both from Amersham), and a CL-Xposure film (Pierce Biotechnology, Rockford, Ill.).
(§2) In case of Ton.Kit.wt cells, KIT phosphorylation was induced by adding rhSCF (100 ng/ml). […]

[2] = target: T2, wt KIT (Ton.Kit.wt Ba/F3 cells) (Homo sapiens, UniProt P10721); test: KIT phosphorylation by immunoprecipitation and Western blotting in Ton.Kit.wt cells; format: cell-based; conditions: 1 μM, 4 hours; doxycycline, SCF 100 ng/ml
T2 construct: expressed in transfected cells
Protocol: as §1, §2

HMC-1.2 cells [3] = test: Apoptosis in HMC-1.2 cells (light and electron microscopy, annexin V/PI, Tunel); format: cell-based, human; conditions: 1 μM, 24 hours
Protocol: For flow cytometric determination of apoptosis and cell viability, combined annexin V/propidium iodide staining is performed. […] Thereafter, cells are washed in PBS and then are incubated with annexinV-APC (Alexis Biochemicals, Lausen, Switzerland) in binding buffer containing HEPES (10 mM, pH 7.4), NaCl (140 mM), and CaCl2 (2.5 mM). Thereafter, propidium iodide (1 μg/ml) is added. Cells are then washed and analyzed by flow cytometry on a FACSCalibur (Becton Dickinson).

HMC-1.2 cells [4] = test: Cell surface antigen expression on HMC-1.2 cells by flow cytometry; format: cell-based, human; conditions: 24 hours
Protocol: After incubation with drugs, HMC-1 cells are washed and subjected to single color flow cytometry using PE-conjugated antibodies against MC antigens known to be overexpressed on neoplastic MC in SM (compared to normal MC) and/or are expressed at an early stage of mastopoiesis (CD2, CD13, CD63, CD117, CD164, CD203c).^45-47 Flow cytometry is performed on a FACSan (Becton Dickinson) as described previously.^29
Flow cytometry was performed on a FACScan (Becton Dickinson) as described.^30,37,51

HMC-1.1 cells [5] = system: HMC-1.1 cells
HMC-1.2 cells [6] = system: HMC-1.2 cells
HMC-1.2 cells [7] = test: Apoptosis in HMC-1.2 cells (light and electron microscopy, annexin V/PI, Tunel); format: cell-based, human; conditions: 24 hours; for apoptosis in HMC-1.2 cells by light microscopy: various concentrations
HMC-1.1 cells [8] = test: Apoptosis in HMC-1.1 cells (light and electron microscopy, Tunel); conditions: 24 hours; for apoptosis in HMC-1.1 cells by Tunel assay: 1 μM; for apoptosis in HMC-1.1 cells by light microscopy: various concentrations
[9] = system: non-transfected Ba/F3 cells; conditions: not shown
[10] = system: Ton.Kit.wt cells (Ba/F3 with inducible wt KIT); test: cells; conditions: Mus musculus, BaF3, 48 h, read-out: IC50, SCF-dependent growth of doxycycline-exposed Ton.Kit.wt cells
normal bm cells = test: 3H-thymidine uptake in normal bone marrow cells (control); format: cell-based, human; conditions: control sample, not shown
Protocol: Both patients gave informed consent before bm puncture. The bm aspirate is obtained from the posterior iliac crest and collected in syringes containing preservative-free heparin. Cells are layered over Ficoll to isolate mononuclear cells (MNC).
In select experiments, HMC-1 cells (both subclones) are incubated with various concentrations of IFNα (0.1-500,000 U/ml) or 2CdA (0.005-10 μg/ml).
The bm aspirate samples were collected in syringes containing preservative-free heparin. Cells were layered over Ficoll to isolate mononuclear cells (MNC). […] Both patients gave written informed consent before bm puncture or blood donation. The study was approved by the local institutional review board and was conducted in accordance with the declaration of Helsinki.
Filters were air-dried, and the bound radioactivity was counted in a β-counter (Top-Count NXT, Packard Bioscience). […] All experiments were performed in triplicates.

[11] = Human trials, Maximum Tolerated Dose; format: in vivo
HMC-1.1 cells [12] = test: cells; conditions: Homo sapiens, read-out: IC50, 3H-thymidine uptake in HMC-1.1 cells
HMC-1.2 cells [13] = test: cells; conditions: Homo sapiens, read-out: IC50, 3H-thymidine uptake in HMC-1.2 cells
[14] = 1 μM, dasatinib various concentrations
[15] = PKC412 1 μM, dasatinib various concentrations

T2 sequence (P10721 26-976): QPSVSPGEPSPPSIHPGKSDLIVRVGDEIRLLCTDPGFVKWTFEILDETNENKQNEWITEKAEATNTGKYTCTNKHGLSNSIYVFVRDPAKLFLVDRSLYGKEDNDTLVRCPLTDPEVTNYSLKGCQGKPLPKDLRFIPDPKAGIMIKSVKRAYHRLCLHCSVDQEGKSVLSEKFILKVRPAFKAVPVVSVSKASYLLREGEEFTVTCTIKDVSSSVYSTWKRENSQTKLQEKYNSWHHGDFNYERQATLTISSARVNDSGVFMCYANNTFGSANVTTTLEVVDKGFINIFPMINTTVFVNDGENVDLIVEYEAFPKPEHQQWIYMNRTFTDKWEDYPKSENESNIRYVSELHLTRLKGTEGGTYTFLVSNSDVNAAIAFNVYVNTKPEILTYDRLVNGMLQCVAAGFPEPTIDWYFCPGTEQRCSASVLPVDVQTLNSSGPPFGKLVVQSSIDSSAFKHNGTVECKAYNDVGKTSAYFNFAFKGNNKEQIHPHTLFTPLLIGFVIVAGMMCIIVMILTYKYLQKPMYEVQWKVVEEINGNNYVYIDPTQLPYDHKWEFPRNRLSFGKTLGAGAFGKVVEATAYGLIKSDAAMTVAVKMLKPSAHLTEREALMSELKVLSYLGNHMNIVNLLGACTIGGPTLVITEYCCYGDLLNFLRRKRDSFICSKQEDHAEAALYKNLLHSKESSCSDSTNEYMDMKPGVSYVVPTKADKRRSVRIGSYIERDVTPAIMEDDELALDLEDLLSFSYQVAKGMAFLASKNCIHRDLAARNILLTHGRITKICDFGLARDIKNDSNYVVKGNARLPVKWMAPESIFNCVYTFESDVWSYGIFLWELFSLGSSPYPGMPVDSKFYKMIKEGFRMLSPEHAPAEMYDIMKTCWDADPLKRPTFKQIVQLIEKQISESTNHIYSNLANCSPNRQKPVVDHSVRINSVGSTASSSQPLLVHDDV
T1 sequence (P10721 26-976 V560G): as the sequence (P10721 26-976) above, with V535G counted along it

KIT phosphorylation in HMC-1.1 cells [1] | IC50 (HMC-1.1 cells [5]) | IC50 (HMC-1.2 cells [6]) | IC50 [10] | SMILES | SCF-induced phosphorylation of KIT in Ton.Kit.wt cells [2] | apoptosis in HMC-1.2 cells by annexinV/propidium iodide flow cytometry and Tunel assay (HMC-1.2 cells [3]) | expression of CD antigens on HMC-1.2 cells (HMC-1.2 cells [4]; 1 μM) | expression of KIT (CD117) on HMC-1.2 cells (HMC-1.2 cells [4]; [14]) | apoptosis in HMC-1.2 cells by light microscopy (HMC-1.2 cells [7]) | apoptosis in HMC-1.1 cells by Tunel assay (HMC-1.1 cells [8]) | apoptosis in HMC-1.1 cells by light microscopy (HMC-1.1 cells [8]) | also measured
reduced KIT phosphorylation | 10 to 30 nM |  |  | Cc1ccc(NC(=O)c2ccc(CN3CCN(C)CC3)cc2)cc1Nc1nccc(-c2cccnc2)n1 [imatinib, reference compound] | decreased the SCF-induced phosphorylation of KIT | showed no effects on HMC-1.2 cells | no significant effects | slight decrease | showed no effects on HMC-1.2 cells | induced apoptosis only in HMC-1.1 cells; also recorded: potent apoptosis-inducing effects only in HMC-1.1 cells | produce apoptosis in HMC-1.1 cells | antiproliferative effect on HMC-1.2 cells (HMC-1.2 cells [6]; 48 hours): no significant antiproliferative effects
strongly reduced KIT phosphorylation | 3 to 10 nM and 5 to 10 nM | 1000 to 5000 nM | 30 to 300 nM | Cc1cn(-c2cc(NC(=O)c3ccc(C)c(Nc4nccc(-c5cccnc5)n4)c3)cc(C(F)(F)F)c2)cn1 [AMN107, 4-Methyl-3-[[4-(3-pyridinyl)-2-pyrimidinyl]amino]-N-[5-(4-methyl-1H-imidazol-1-yl)-3-(trifluoromethyl)phenyl]benzamide] | decreased the SCF-induced phosphorylation of KIT |  | no significant effects | slight decrease | induce apoptosis in both HMC-1 subclones in a dose-dependent manner | potent apoptosis-inducing effects only in HMC-1.1 cells | induce apoptosis in both HMC-1 subclones in a dose-dependent manner | growth-inhibitory effect on control (non-transfected) Ba/F3 cells [9]: neither doxycycline (1 μg/ml), nor the TK inhibitors (imatinib, PKC412, AMN107), showed growth-inhibitory effects
 |  | 200 to 500 nM | 1 to 10 nM | Cc1nc(Nc2ncc(C(=O)Nc3c(C)cccc3Cl)s2)cc(N2CCN(CCO)CC2)n1 [dasatinib, reference compound] |  |  |  |  |  |  |  | 

Second part, the compound before the results:

SMILES | KIT phosphorylation in HMC-1.1 cells [1] | IC50 (HMC-1.1 cells [5]) | IC50 (HMC-1.2 cells [6]) | IC50 [10] | SCF-induced phosphorylation of KIT in Ton.Kit.wt cells [2] | apoptosis in HMC-1.2 cells by annexinV/propidium iodide flow cytometry and Tunel assay (HMC-1.2 cells [3]) | expression of CD antigens on HMC-1.2 cells (HMC-1.2 cells [4]; 1 μM) | expression of KIT (CD117) on HMC-1.2 cells (HMC-1.2 cells [4]; [14]) | apoptosis in HMC-1.2 cells by light microscopy (HMC-1.2 cells [7]) | apoptosis in HMC-1.1 cells by Tunel assay (HMC-1.1 cells [8]) | apoptosis in HMC-1.1 cells by light microscopy (HMC-1.1 cells [8]) | also measured
CO[C@@H]1[C@H](N(C)C(=O)c2ccccc2)C[C@H]2O[C@]1(C)n1c3ccccc3c3c4c(c5c6ccccc6n2c5c31)C(=O)NC4 [PKC412, N-[(9S,10R,11R,13R)-2,3,10,11,12,13-hexahydro-10-methoxy-9-methyl-1-oxo-9,13-epoxy-1H,9H-diindolo[1,2,3-gh:3′,2′,1′-1m]pyrrolo[3,4-j][1,7]benzodiazonin-11-yl]-N-methylbenzamide] | decreased phosphorylation of KIT |  |  |  | decreased the SCF-induced phosphorylation of KIT | induce apoptosis in HMC-1.2; also recorded: also induced apoptosis in both cell lines; also recorded: produced apoptosis in most HMC-1.1 and HMC-1.2 cells |  | slight decrease | induce apoptosis in both HMC-1 subclones in a dose-dependent manner; also recorded: also found to induce apoptosis in both HMC-1 subclones | also induced apoptosis in both cell lines; also recorded: produced apoptosis in most HMC-1.1 and HMC-1.2 cells | induce apoptosis in both HMC-1 subclones in a dose-dependent manner; also recorded: also found to induce apoptosis in both HMC-1 subclones | effect on 3H-thymidine uptake in normal bm cells (normal bm cells): showed no effect; also recorded: no effects; expression of CD203c on HMC-1.2 cells (HMC-1.2 cells [4]; 1 μM): no significant effects; expression of CD63 on HMC-1.2 cells (HMC-1.2 cells [4]; PKC412 1 μM or various, dasatinib various concentrations): significant decrease; also recorded: dose-dependently decreased expression of CD63; expression of CD2 on HMC-1.2 cells (HMC-1.2 cells [4]; [15]): significant decrease; expression of CD13 on HMC-1.2 cells (HMC-1.2 cells [4]; [15]): no significant effects; expression of CD164 on HMC-1.2 cells (HMC-1.2 cells [4]; [15]): significant decrease; Maximum Tolerated Dose (MTD), total dose [11]: 225 mg/day; apoptosis in HMC-1.2 cells by electron microscopy (HMC-1.2 cells [7]; 1 μM): produce apoptosis in HMC-1.2 cells
Nc1nc(Cl)nc2c1ncn2[C@H]1C[C@H](O)[C@@H](CO)O1 [2CdA, 2-chlorodeoxyadenosine] |  |  |  |  |  |  |  |  |  |  |  | IC50 (HMC-1.1 cells [12]): 0.1 to 0.3 µg/mL (≈ 0.35 to 1.05 µM); IC50 (HMC-1.2 cells [13]): 0.01 to 0.02 µg/mL (≈ 0.035 to 0.07 µM)
